Measurements as given in patent US7018641B1, “Materials and methods for the control of plant pathogens” (priority 2000, dated 2006).

Legend:
Ralstonia solanacearum [1] = type: cell-based
Ralstonia solanacearum [2] = type: cell-based; remark: listed apart in the source

Structure (SMILES) | reduction of population of Ralstonia solanacearum (Ralstonia solanacearum [1]; compared to untreated control) [%] | volatile bactericidal activity (Ralstonia solanacearum [1]; in words) | inhibition of the development of R. solanacearum colonies (Ralstonia solanacearum [2]; 100 μg/ml concentration, FIG. 2) | efficacy against Rs (Ralstonia solanacearum [2]; tested in vitro and in greenhouse, vapor effect for the oils)
CC(C)=CCC/C(C)=C/CO [Geraniol, geraniol] | 89.5 | volatile bactericidal activity | – | –
Cc1ccc(C(C)C)c(O)c1 [Thymol, thymol] | – | – | entirely inhibited | effective
